Results: the supplement of paper PMC10307832

Columns and labels:
Experiment in all cases: relative viability (nuclei count vs DMSO), 5 days (fraction); higher = more cells survive
IPA-3 + Phenformin = compound: C1=CC=C2C(=C1)C=CC(=C2SSC3=C(C=CC4=CC=CC=C43)O)O [IPA-3] + N=C(N)NC(=N)NCCc1ccccc1 [Phenformin] (partner 250 µM)
In short: (§1)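 Relative viability equals treated-well nuclei counts divided by vehicle-well nuclei counts. Counts came from 4× images of lung cancer cell lines grown in 1536-well plates for 5 days after pin-tool dosing on the day after seeding. Dosing used one drug alone or a fixed anchor-drug dose plus five library-drug doses (not always all listed) in √10 steps, and values are medians of duplicate plates.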

Doramapimod + Crizotinib = compound: Cc1ccc(-n2nc(C(C)(C)C)cc2NC(=O)Nc2ccc(OCCN3CCOCC3)c3ccccc23)cc1 [Doramapimod] + C[C@@H](Oc1cc(-c2cnn(C3CCNCC3)c2)cnc1N)c1c(Cl)ccc(F)c1Cl [Crizotinib] (partner 1 µM)
In short: as §1

RAF265 + Lapatinib = compound: Cn1c(Nc2ccc(C(F)(F)F)cc2)nc2cc(Oc3ccnc(-c4ncc(C(F)(F)F)[nH]4)c3)ccc21 [RAF265] + CS(=O)(=O)CCNCc1ccc(-c2ccc3ncnc(Nc4ccc(OCc5cccc(F)c5)c(Cl)c4)c3c2)o1 [Lapatinib] (partner 2 µM)
In short: as §1

Doramapimod + Luminespib = compound: Cc1ccc(-n2nc(C(C)(C)C)cc2NC(=O)Nc2ccc(OCCN3CCOCC3)c3ccccc23)cc1 [Doramapimod] + CCNC(=O)c1noc(-c2cc(C(C)C)c(O)cc2O)c1-c1ccc(CN2CCOCC2)cc1 [Luminespib] (partner 0.01 µM)
In short: as §1

| Cell Line | relative viability (IPA-3 + Phenformin; first compound 0.2 µM) | relative viability (IPA-3 + Phenformin; first compound 0.6325 µM) | relative viability (IPA-3 + Phenformin; first compound 2 µM) | relative viability (IPA-3 + Phenformin; first compound 6.325 µM) | relative viability (IPA-3 + Phenformin; first compound 20 µM) | relative viability (Doramapimod + Crizotinib; first compound 0.02 µM) | relative viability (Doramapimod + Crizotinib; first compound 0.06325 µM) | relative viability (Doramapimod + Crizotinib; first compound 0.2 µM) | relative viability (Doramapimod + Crizotinib; first compound 0.6325 µM) | relative viability (Doramapimod + Crizotinib; first compound 2 µM) | relative viability (RAF265 + Lapatinib; first compound 0.01 µM) | relative viability (RAF265 + Lapatinib; first compound 0.03162 µM) | relative viability (RAF265 + Lapatinib; first compound 0.1 µM) | relative viability (RAF265 + Lapatinib; first compound 0.3162 µM) | relative viability (RAF265 + Lapatinib; first compound 1 µM) | relative viability (Doramapimod + Luminespib; first compound 0.02 µM) | relative viability (Doramapimod + Luminespib; first compound 0.06325 µM) | relative viability (Doramapimod + Luminespib; first compound 0.2 µM) | relative viability (Doramapimod + Luminespib; first compound 0.6325 µM) | relative viability (Doramapimod + Luminespib; first compound 2 µM) |
| --- | --- | --- | --- | --- | --- | --- | --- | --- | --- | --- | --- | --- | --- | --- | --- | --- | --- | --- | --- | --- |
| NCI-H1666 | 0.654 | 0.552 | 0.547 | 1.04 | 0.469 | 1.21 | 0.907 | 0.959 | 1.08 | 0.935 | 1.06 | 0.629 | 0.856 | 0.791 | 0.53 | 1.02 | 1.06 | 1.06 | 1.06 | 1 |
| NCI-H1734 | 0.394 | 0.371 | 0.371 | 0.412 | 0.368 | 0.665 | 0.639 | 0.589 | 0.659 | 0.495 | 1.08 | 0.854 | 0.866 | 0.806 | 0.485 | 0.227 | 0.259 | 0.214 | 0.17 | 0.18 |
| NCI-H1755 | 0.675 | 0.582 | 0.622 | 0.612 | 0.557 | 0.886 | 0.905 | 0.788 | 0.768 | 0.833 | 1.06 | 1.06 | 1.03 | 0.974 | 0.622 | 0.354 | 0.426 | 0.411 | 0.431 | 0.22 |
| NCI-H1792 | 0.371 | 0.44 |  |  | 0.408 | 0.762 | 1.06 | 1.07 | 1.04 | 0.971 | 0.928 | 0.843 | 0.946 | 0.913 | 0.593 | 0.396 | 0.345 | 0.385 | 0.413 | 0.356 |
| NCI-H1915 | 0.388 | 0.36 | 0.371 | 0.338 | 0.389 | 0.907 | 0.894 | 0.915 | 0.918 | 0.779 | 0.968 | 0.92 | 0.909 | 0.715 | 0.371 | 0.58 | 0.821 | 0.793 | 0.9 | 0.712 |
| NCI-H1944 | 0.212 | 0.186 | 0.189 | 0.219 | 0.176 | 1.09 | 0.993 | 1.14 | 1.16 | 1.11 | 0.79 | 0.966 | 0.924 | 0.75 | 0.562 | 0.626 | 0.777 | 0.718 | 0.769 | 0.655 |
| NCI-H1975 | 0.43 | 0.385 | 0.43 | 0.429 | 0.381 | 1.05 | 0.944 | 0.897 | 0.973 | 0.96 | 0.809 | 0.791 | 0.618 | 0.469 | 0.412 | 0.173 | 0.192 | 0.207 | 0.258 | 0.266 |
| NCI-H1993 | 0.467 | 0.515 | 0.538 | 0.547 | 0.514 | 0.739 | 0.788 | 0.907 | 0.919 | 0.775 | 0.789 | 0.833 | 0.995 | 0.908 | 0.967 | 1.85 | 0.87 | 0.64 | 0.975 | 0.744 |
| NCI-H2009 | 0.539 | 0.477 | 0.495 | 0.445 | 0.387 | 1.04 | 1.2 | 1.18 | 1.08 | 0.988 | 1.01 | 0.941 | 0.85 | 0.885 | 0.691 | 1.05 | 1.17 | 1.12 | 1.23 | 1.04 |
| NCI-H2023 | 0.51 | 0.403 | 0.496 | 0.409 | 0.436 | 0.695 | 0.629 | 0.575 | 0.666 | 0.625 | 0.905 | 0.77 | 1.13 | 0.579 | 0.727 | 0.656 | 0.77 | 0.74 | 0.929 | 0.614 |
| NCI-H2085 | 0.82 | 0.651 | 0.744 | 0.678 | 0.585 | 0.86 | 0.871 | 0.851 | 0.95 | 0.655 | 0.777 | 0.709 | 0.806 | 0.843 | 0.717 | 0.411 | 0.601 | 0.409 | 0.46 | 0.463 |
| NCI-H2087 | 0.596 | 0.412 | 0.555 | 0.476 | 0.466 | 0.982 | 0.888 | 0.922 | 0.908 | 0.988 | 0.964 | 0.874 | 0.837 | 0.833 | 0.684 | 0.174 | 0.215 | 0.195 | 0.158 | 0.234 |
| NCI-H2126 | 0.57 | 0.517 | 0.506 | 0.516 | 0.629 | 0.966 | 1.06 | 1.06 | 1.11 | 1.05 | 0.765 | 0.732 | 0.718 | 0.756 | 0.662 | 0.832 | 0.906 | 0.964 | 1.03 | 0.702 |
| NCI-H2170 | 0.438 | 0.358 | 0.457 | 0.356 | 0.481 | 1.12 | 1.2 | 1.09 | 1.22 | 1.14 | 0.278 | 0.306 | 0.284 | 0.296 | 0.287 | 0.649 | 0.754 | 0.64 | 0.825 | 0.638 |
| NCI-H2228 | 0.556 | 0.31 | 0.336 | 0.377 | 0.284 | 0.465 | 0.385 | 0.425 | 0.546 | 0.44 | 1.25 | 0.859 | 1.24 | 0.416 | 0.43 | 0.151 | 0.151 | 0.107 | 0.14 | 0.131 |
| NCI-H2347 | 0.334 | 0.448 | 0.33 | 0.406 | 0.736 | 0.789 | 0.568 | 0.745 | 0.762 | 0.644 | 1.1 | 0.915 | 0.998 | 0.887 | 0.435 | 0.0162 |  | 0.601 | 0.5 | 0.492 |
